Test results reported in ChEMBL document CHEMBL3885861, “Open TG-GATES”.

Organism: Rattus norvegicus
Experiment: Open TG-GATES - Regimen: Daily Repeat
Type: toxicity, organism-based, Sprague-Dawley
Set-up: regimen Daily Repeat, gender Male, age 6 weeks
Conditions: in vivo, po, route gavage; for APTT / Bas / Eos / Fbg / Hb / Ht / Lym / MCH / MCHC / MCV / Mono / Neu / PT / Plat / RBC / Ret / WBC: tissue Blood; for KIDNEY_L / KIDNEY_R / KIDNEY_TOTAL: tissue Kidney; for LIVER: tissue Liver; for A/G / ALP / ALT / AST / BUN / CRE / Ca / Cl / DBIL / GLC / IP / K / LDH / Na / PL / RALB / TBIL / TC / TG / TP / gamma-GTP: tissue Plasma
[1] = 0 mg/kg, 72 h, dose level Control, time 3 day
[2] = 0 mg/kg, […], dose level Control, time 7 day
[3] = 0 mg/kg, […], dose level Control, time 14 day
[4] = 0 mg/kg, […], dose level Control, time 28 day
[5] = 3 mg/kg, 72 h, dose level Low, time 3 day
[6] = 3 mg/kg, […], dose level Low, time 7 day
[7] = 3 mg/kg, […], dose level Low, time 14 day
[8] = 3 mg/kg, […], dose level Low, time 28 day

CN(C)CCC(c1ccc(Cl)cc1)c1ccccn1 (centres undefined) [CHLORPHENIRAMINE]
TERMINAL_BW [1]: 224.6 g
APTT [1]: 23.2 s
Bas [1]: 0%
Eos [1]: 1.2%
Fbg [1]: 295.2 mg/dL
Hb [1]: 13.4 g/dL
Ht [1]: 41.7%
Lym [1]: 77.6%
MCH [1]: 20.6 pg
MCHC [1]: 32.1%
MCV [1]: 64.2 fL
Mono [1]: 2.8%
Neu [1]: 17.4%
PT [1]: 14.5 s
Plat [1]: 127.5 x10_4/uL
RBC [1]: 650.8 x10_4/ul
Ret [1]: 6.9%
WBC [1]: 76.4 x10_2/uL
KIDNEY_L [1]: 0.9 g
KIDNEY_R [1]: 0.9 g
KIDNEY_TOTAL [1]: 1.9 g
LIVER [1]: 10.1 g
A/G [1]: 0.9
ALP [1]: 1824 IU/L
ALT [1]: 44.2 IU/L
AST [1]: 69.4 IU/L
BUN [1]: 14.6 mg/dL
CRE [1]: 0.2 mg/dL
Ca [1]: 10.5 mg/dL
Cl [1]: 107.2 meq/L
DBIL [1]: 0.014 mg/dL
GLC [1]: 182.4 mg/dL
IP [1]: 7.7 mg/dL
K [1]: 4.5 meq/L
LDH [1]: 109.4 IU/L
Na [1]: 142.2 meq/L
PL [1]: 151.6 mg/dL
RALB [1]: 2.7 g/dL
TBIL [1]: 0.034 mg/dL
TC [1]: 79 mg/dL
TG [1]: 87.8 mg/dL
TP [1]: 5.8 g/dL
gamma-GTP [1]: 1.4 IU/L
TERMINAL_BW [2]: 265.1 g
TERMINAL_BW [3]: 314.1 g
TERMINAL_BW [4]: 409.3 g
APTT [2]: 18.7 s
Bas [2]: 0%
Eos [2]: 0.8%
Fbg [2]: 323.4 mg/dL
Hb [2]: 14 g/dL
Ht [2]: 43.3%
Lym [2]: 78.6%
MCH [2]: 20.5 pg
MCHC [2]: 32.4%
MCV [2]: 63.3 fL
Mono [2]: 2.8%
Neu [2]: 16.6%
PT [2]: 13.9 s
Plat [2]: 113.9 x10_4/uL
RBC [2]: 684.8 x10_4/ul
Ret [2]: 5.9%
WBC [2]: 83.1 x10_2/uL
APTT [3]: 20.3 s
Bas [3]: 0.4%
Eos [3]: 1%
Fbg [3]: 308.2 mg/dL
Hb [3]: 14.8 g/dL
Ht [3]: 45.2%
Lym [3]: 76.8%
MCH [3]: 20.4 pg
MCHC [3]: 32.7%
MCV [3]: 62.2 fL
Mono [3]: 2.2%
Neu [3]: 18.8%
PT [3]: 14.5 s
Plat [3]: 111 x10_4/uL
RBC [3]: 727.2 x10_4/ul
Ret [3]: 3.8%
WBC [3]: 90.4 x10_2/uL
APTT [4]: 17.8 s
Bas [4]: 0.2%
Eos [4]: 1.2%
Fbg [4]: 280.8 mg/dL
Hb [4]: 15.4 g/dL
Ht [4]: 45.7%
Lym [4]: 76.4%
MCH [4]: 18.9 pg
MCHC [4]: 33.7%
MCV [4]: 56.2 fL
Mono [4]: 2%
Neu [4]: 19.8%
PT [4]: 14.5 s
Plat [4]: 115.9 x10_4/uL
RBC [4]: 813.8 x10_4/ul
Ret [4]: 2.5%
WBC [4]: 96.5 x10_2/uL
KIDNEY_L [2]: 1 g
KIDNEY_R [2]: 1 g
KIDNEY_TOTAL [2]: 2.1 g
KIDNEY_L [3]: 1.1 g
KIDNEY_R [3]: 1.1 g
KIDNEY_TOTAL [3]: 2.2 g
KIDNEY_L [4]: 1.4 g
KIDNEY_R [4]: 1.4 g
KIDNEY_TOTAL [4]: 2.8 g
LIVER [2]: 12.2 g
LIVER [3]: 12.9 g
LIVER [4]: 17.3 g
A/G [2]: 0.8
ALP [2]: 1518.2 IU/L
ALT [2]: 43.2 IU/L
AST [2]: 65.8 IU/L
BUN [2]: 15.4 mg/dL
CRE [2]: 0.2 mg/dL
Ca [2]: 11.6 mg/dL
Cl [2]: 104.8 meq/L
DBIL [2]: 0.018 mg/dL
GLC [2]: 193.8 mg/dL
IP [2]: 8.1 mg/dL
K [2]: 4.2 meq/L
LDH [2]: 90.8 IU/L
Na [2]: 143.2 meq/L
PL [2]: 166.4 mg/dL
RALB [2]: 2.8 g/dL
TBIL [2]: 0.034 mg/dL
TC [2]: 86.6 mg/dL
TG [2]: 139.6 mg/dL
TP [2]: 6.1 g/dL
gamma-GTP [2]: 1 IU/L
A/G [3]: 0.8
ALP [3]: 1632.2 IU/L
ALT [3]: 38.2 IU/L
AST [3]: 66.4 IU/L
BUN [3]: 15.6 mg/dL
CRE [3]: 0.2 mg/dL
Ca [3]: 10.9 mg/dL
Cl [3]: 106.4 meq/L
DBIL [3]: 0.016 mg/dL
GLC [3]: 187.2 mg/dL
IP [3]: 6.9 mg/dL
K [3]: 4.2 meq/L
LDH [3]: 77 IU/L
Na [3]: 143.4 meq/L
PL [3]: 153.4 mg/dL
RALB [3]: 2.8 g/dL
TBIL [3]: 0.038 mg/dL
TC [3]: 72.6 mg/dL
TG [3]: 126 mg/dL
TP [3]: 6.1 g/dL
gamma-GTP [3]: 1 IU/L
A/G [4]: 0.8
ALP [4]: 1089.8 IU/L
ALT [4]: 37.2 IU/L
AST [4]: 60.4 IU/L
BUN [4]: 17.4 mg/dL
CRE [4]: 0.2 mg/dL
Ca [4]: 10.6 mg/dL
Cl [4]: 106.8 meq/L
DBIL [4]: 0.016 mg/dL
GLC [4]: 186.2 mg/dL
IP [4]: 6.3 mg/dL
K [4]: 4.2 meq/L
LDH [4]: 77.4 IU/L
Na [4]: 144.8 meq/L
PL [4]: 168.4 mg/dL
RALB [4]: 2.9 g/dL
TBIL [4]: 0.026 mg/dL
TC [4]: 79.6 mg/dL
TG [4]: 174 mg/dL
TP [4]: 6.4 g/dL
gamma-GTP [4]: 1 IU/L
TERMINAL_BW [5]: 233.5 g
APTT [5]: 18.3 s
Bas [5]: 0.2%
Eos [5]: 1%
Fbg [5]: 299.4 mg/dL
Hb [5]: 13.3 g/dL
Ht [5]: 41.5%
Lym [5]: 80.4%
MCH [5]: 21 pg
MCHC [5]: 32.1%
MCV [5]: 65.5 fL
Mono [5]: 2.8%
Neu [5]: 15.2%
PT [5]: 14.5 s
Plat [5]: 124 x10_4/uL
RBC [5]: 634 x10_4/ul
Ret [5]: 7.1%
WBC [5]: 89 x10_2/uL
KIDNEY_L [5]: 1 g
KIDNEY_R [5]: 0.9 g
KIDNEY_TOTAL [5]: 1.9 g
LIVER [5]: 11.3 g
A/G [5]: 0.8
ALP [5]: 1834.4 IU/L
ALT [5]: 44.4 IU/L
AST [5]: 66.4 IU/L
BUN [5]: 16.2 mg/dL
CRE [5]: 0.2 mg/dL
Ca [5]: 10.6 mg/dL
Cl [5]: 106.2 meq/L
DBIL [5]: 0.018 mg/dL
GLC [5]: 183.6 mg/dL
IP [5]: 8.3 mg/dL
K [5]: 4.3 meq/L
LDH [5]: 94.6 IU/L
Na [5]: 142 meq/L
PL [5]: 162.6 mg/dL
RALB [5]: 2.7 g/dL
TBIL [5]: 0.04 mg/dL
TC [5]: 86.6 mg/dL
TG [5]: 109.8 mg/dL
TP [5]: 5.8 g/dL
gamma-GTP [5]: 1 IU/L
TERMINAL_BW [6]: 265.1 g
TERMINAL_BW [7]: 330.4 g
TERMINAL_BW [8]: 400.2 g
APTT [6]: 19.8 s
Bas [6]: 0%
Eos [6]: 1%
Fbg [6]: 289.8 mg/dL
Hb [6]: 13.7 g/dL
Ht [6]: 41.7%
Lym [6]: 77.2%
MCH [6]: 20.6 pg
MCHC [6]: 32.8%
MCV [6]: 62.8 fL
Mono [6]: 2.6%
Neu [6]: 18.4%
PT [6]: 14 s
Plat [6]: 116 x10_4/uL
RBC [6]: 665 x10_4/ul
Ret [6]: 6%
WBC [6]: 80.2 x10_2/uL
APTT [7]: 18.1 s
Bas [7]: 0.2%
Eos [7]: 1%
Fbg [7]: 299 mg/dL
Hb [7]: 14.4 g/dL
Ht [7]: 43.5%
Lym [7]: 80.2%
MCH [7]: 20.5 pg
MCHC [7]: 33.1%
MCV [7]: 61.9 fL
Mono [7]: 2.8%
Neu [7]: 15%
PT [7]: 14.4 s
Plat [7]: 119.7 x10_4/uL
RBC [7]: 703.8 x10_4/ul
Ret [7]: 4.6%
WBC [7]: 85 x10_2/uL
APTT [8]: 17.7 s
Bas [8]: 0.4%
Eos [8]: 1%
Fbg [8]: 281.2 mg/dL
Hb [8]: 15.6 g/dL
Ht [8]: 46.5%
Lym [8]: 77.4%
MCH [8]: 19 pg
MCHC [8]: 33.5%
MCV [8]: 56.8 fL
Mono [8]: 2.4%
Neu [8]: 18%
PT [8]: 14.5 s
Plat [8]: 107.8 x10_4/uL
RBC [8]: 819.6 x10_4/ul
Ret [8]: 2.4%
WBC [8]: 82.8 x10_2/uL
KIDNEY_L [6]: 1.1 g
KIDNEY_R [6]: 1.1 g
KIDNEY_TOTAL [6]: 2.2 g
KIDNEY_L [7]: 1.2 g
KIDNEY_R [7]: 1.2 g
KIDNEY_TOTAL [7]: 2.5 g
KIDNEY_L [8]: 1.4 g
KIDNEY_R [8]: 1.4 g
KIDNEY_TOTAL [8]: 2.8 g
LIVER [6]: 12.6 g
LIVER [7]: 14.8 g
LIVER [8]: 15.6 g
A/G [6]: 0.8
ALP [6]: 1694.2 IU/L
ALT [6]: 41.6 IU/L
AST [6]: 68 IU/L
BUN [6]: 15.6 mg/dL
CRE [6]: 0.2 mg/dL
Ca [6]: 11.4 mg/dL
Cl [6]: 106.2 meq/L
DBIL [6]: 0.014 mg/dL
GLC [6]: 194 mg/dL
IP [6]: 7.7 mg/dL
K [6]: 4.2 meq/L
LDH [6]: 93 IU/L
Na [6]: 144 meq/L
PL [6]: 159.8 mg/dL
RALB [6]: 2.7 g/dL
TBIL [6]: 0.032 mg/dL
TC [6]: 77.8 mg/dL
TG [6]: 135 mg/dL
TP [6]: 6 g/dL
gamma-GTP [6]: 1 IU/L
A/G [7]: 0.8
ALP [7]: 1670 IU/L
ALT [7]: 39.2 IU/L
AST [7]: 64.2 IU/L
BUN [7]: 16.4 mg/dL
CRE [7]: 0.2 mg/dL
Ca [7]: 11.1 mg/dL
Cl [7]: 105.2 meq/L
DBIL [7]: 0.02 mg/dL
GLC [7]: 194 mg/dL
IP [7]: 7.7 mg/dL
K [7]: 4.1 meq/L
LDH [7]: 103.6 IU/L
Na [7]: 143.4 meq/L
PL [7]: 160.8 mg/dL
RALB [7]: 2.8 g/dL
TBIL [7]: 0.034 mg/dL
TC [7]: 77 mg/dL
TG [7]: 153 mg/dL
TP [7]: 6.1 g/dL
gamma-GTP [7]: 1 IU/L
A/G [8]: 0.8
ALP [8]: 1190.6 IU/L
ALT [8]: 38.6 IU/L
AST [8]: 63.8 IU/L
BUN [8]: 17 mg/dL
CRE [8]: 0.2 mg/dL
Ca [8]: 10.6 mg/dL
Cl [8]: 107.6 meq/L
DBIL [8]: 0.014 mg/dL
GLC [8]: 186.2 mg/dL
IP [8]: 6.2 mg/dL
K [8]: 4 meq/L
LDH [8]: 70.4 IU/L
Na [8]: 145 meq/L
PL [8]: 156.2 mg/dL
RALB [8]: 2.8 g/dL
TBIL [8]: 0.028 mg/dL
TC [8]: 75.2 mg/dL
TG [8]: 148 mg/dL
TP [8]: 6.4 g/dL
gamma-GTP [8]: 0.8 IU/L
